Laboratory results as given in patent publication US20080153872A1, “Bis-(Coumarin) Compounds With Anti-Inflammatory Activity” (priority 2005, published 2008).

Experiments:
[1] = system: IL-10; test: Inhibition of IL-10 production by ConA stimulated mouse splenocytes; type: cell-based; details: 25 μM
Method: (§1) Spleen cell suspension was obtained from BALB/c mice and lymphocytes separated by gradient density centrifugation on Histopaque 1.083 on 400 g for 30 minutes. They were washed once in medium, counted and their number adjusted as 3×10^5/200 μL/well in 96 flat bottomed culture plate in RPMI supplemented with 10% fetal bovine serum. Cells were stimulated on cytokine production by adding concanavalinA (ConA) at 5 μg/mL final concentration. Unstimulated cells were cultured in medium alone. Stock solution was prepared out of testing compounds as 10 mM in DMSO. Final concentrations made in cell culture medium were tested when they had been added together with ConA. After 72 hours incubation period cell culture supernatants were collected. In each sample IL-4, IL-5, IL-10 and IFNγ were detected and quantified using enzyme linked immunosorbent assay (ELISA) specific for pointed cytokines (R&D Systems).
(§2) To calculate results, standard curve was made out of measured OD values for recombinant protein in known concentrations. Cytokine content in unknown samples was calculated out of OD values extrapolated from the standard curve.
(§3) Percentage of inhibition is calculated using formula:
(§4) % Inhibition=(1−cytokine concentration of sample/cytokine concentration of positive control)×100.

[2] = system: CD1 mice; test: PMA induced ear oedema in CD1 mice; type: in vivo, mouse; details: topical, single dose of 250 or 100 μg/15 μL/ear; statistically significant vs positive control
Method: Male CD1 mice (Iffa Credo, France) weighing ˜35-40 g were randomly grouped (n=8 in vehicle treated test group, dexamethasone treated control group as well as in groups treated with compounds to be assayed). Test compounds, dexamethasone as well as vehicle (Trans-phase Delivery System, containing benzyl alcohol 10%, acetone 40% and isopropanol 50%) (all from Kemika, Croatia), were administered topically to the internal surface of the left ear thirty minutes prior to administration of phorbol 12-myristate 13-acetate (PMA) (Alexis biochemicals, USA). Test compounds were administered at a single dose of 250 or 100 μg/15 μL/ear and dexamethasone at a single dose of 50 μg/15 μL/ear. Thirty minutes later, 0.01% PMA solution in acetone was applied topically to the same area of each animal in a volume of 12 μL/ear. During the treatment and challenge, animals were anaesthetized by using inhalation anaesthesia. Six hours after the challenge, animals were euthanized by asphyxiation in 100% CO2 atmosphere. For assessing the auricular oedema, 8 mm discs were cut out of left and right auricular pinna and weighed. The degree of oedema was calculated by subtracting the weight of 8 mm disc of the untreated ear from that of the treated contralateral ear.

[3] = system: IL-1β; test: Inhibition of IL-1β production by LPS stimulated human peripheral blood mononuclear cells (hPBMCs); type: cell-based; details: 25 μM
Method: Blood was taken from healthy volunteer donor, diluted with the same volume of saline and was separated by gradient density centrifugation on FicollPaque™ Plus on 400 g for 30 minutes. PBMCs were collected, washed in RPMI, counted and number per mL was adjusted.
Collected PBMCs were cultured into 96 well tissue culture plate, flat bottom as 35.000 cells/well/200 uL in RPMI supplemented with 10% fetal bovine serum, prior inactivated on 56° C. for 30 minutes. Cells were stimulated on IL-1 production by adding LPS (serotype 0111:B4, Sigma, cat# L-2630), at final concentration 1 ng/mL. Unstimulated cells were cultured in medium alone. Stock solution was prepared out of testing compounds as 10 mM in DMSO. Final concentrations made in cell culture medium were tested when they had been added together with LPS. […] Negative and positive control samples were prepared in sextaplicates and samples with tested compound concentrations in triplicates. After overnight incubation in humidified atmosphere containing 5% CO2, supernatants were collected.
Harvested cell culture supernatants were quantified for IL-1β content by enzyme linked immunosorbent assay (ELISA).
as §3, §4

[4] = system: IL-5; test: Inhibition of IL-5 production by ConA stimulated mouse splenocytes; type: cell-based; details: 25 μM
Method: as §1, §2, §3, §4

[5] = system: IL-4; test: Inhibition of IL-4 production by ConA stimulated mouse splenocytes; type: cell-based; details: 25 μM
Method: as §1, §2, §3, §4

[6] = system: IFNγ; test: Inhibition of IFNγ production by ConA stimulated mouse splenocytes; type: cell-based; details: 25 μM
Method: as §1, §2, §3, §4

[7] = system: RBL-2H3 cell line; test: IgE-induced RBL-2H3 mast cell degranulation (Fcε receptor type I); type: cell-based, rat; details: concentrations from 200-50 μM; RBL-2H3 cells; stimulus not specified
Method: RBL-2H3 cell line of rat basophilic leukaemia (ATCC) was used for the investigation of inhibition of degranulation induced by the activation of Fcε receptor type I or calcium ionophors. RBL-2H3 cell line was cultivated in DMEM medium (Invitrogen Cat. No. 31966-021) with 10% of phoetal calf serum (Invitrogen Corporation) at 37° C., 5% CO2, 90% relative humidity. Cells were seeded in the same medium into 24-well plates, 50000 per well, and left to reach 80-90% of confluence.
Dilutions of compounds were prepared in DMEM medium without phenol red (Invitrogen Corporation) in concentrations from 200 μM to 1 μM. The medium was removed from the cells and the diluted of compounds were added to the wells with the exception of the positive and the negative control where pure DMEM medium was added. Subsequently,
1. for the IgE-induced degranulation by Fcs receptor type I, a solution of SPE-1 (dinitrophenyl specific IgE) antibodies (Sigma) and dinitrophenylalbumin (Sigma), both in a final concentration of 0.5 μg/mL,
In the case of the negative control wells, pure DMEM medium was added. The cells were incubated for one hour at 37° C., 5% CO2, and 90% relative humidity. Each dilution as well as the positive and the negative controls were performed in triplicate. The supernatant (50 μL) was transferred in duplicate to a 96-well plate. […] The absorbance was measured at […]. […]

[8] = system: Balb/cJ mice; test: LPS induced pulmonary neutrophilia in mice; type: in vivo, mouse; details: LPS challenged mice; i.n., i.p. or per os
Method: Male Balb/cJ mice (Iffa Credo, France) weighing ˜25 g are randomly grouped into a negative control group, positive control group and groups treated with compounds to be assayed). Test compounds, as well as vehicle (DMSO+0.5% methyl-cellulose) (all from Sigma), are administered i.n., ip. or per os two hours prior to administration of lipopolysaccharide (LPS) (E. coli, serotype 0111:B4, Sigma) or two hours prior and two hours after administration of LPS. Test compounds are administered at a single dose (two hours prior the challenge) or divided into two doses (two hours prior and two hours after the challenge). LPS solution in phosphate buffered saline (PBS) (Sigma) is administered intranasally in volume of 60 μL at concentration of 33,33 μg/mL, to all experimental groups except the negative control group, which received the same volume (60 μL) of vehicle PBS. During the challenge, animals were anaesthetized by using intraperitoneal anaesthesia. Animals are euthanized by i.p. anesthesia overdose approximately 24 hours after application of LPS to obtain bronchoalveolar lavage fluid (BALF), which is used to determine total protein concentration as well as concentrations of cytokines, such as IL-1β and TNF-α, absolute number of cells, and percentage of neutrophils in BALF. Bronchoalveolar lavage (BAL) is performed by infusing 1 mL of PBS divided into 3 separate volumes (0.4, 0.3 and 0.3 ml) through trachea into the lungs. The fluid is immediately withdrawn and the cell suspension stored into previously prepared 1.5 mL Eppendorf tube. Bronchoalveolar lavage fluid (BALF) is then centrifuged at […] for 5 min (4° C.). Cells are resuspended in 700 μL of PBS. To prepare cytospins, 320 μL of suspension is centrifuged at 250 rpm for 10 min (Cytospin-3, Shandon Instruments). Cells are stained with Dif-Quik (Dade Behring) to determine percentage of neutrophils by counting of at least 200 cells. The remaining resuspended cells are used for total cell count in BALF analysis (Sysmex SF 3000). […] Accumulation of granulocytes and mononuclear cells in peribronclhial (PB) and perivascular (PV) lung tissue areas and alveolar spaces is monitored.
(§5) Results can be expressed as (I) decrease of absolute cell number per mL in BALF, (II) decrease of number of neutrophils per mL in BALF, (III) reduction of relative number (percentage) of neutrophils in BALF, (IV) reduction of cytokine concentrations in BALF, as well as (V) suppression of accumulation of granulocytes and mononuclear cells in peribronchial (PB) and perivascular (PV) lung tissue areas and in alveolar spaces by pathohistological scoring of treated animals compared to positive control (LPS stimulated, but untreated animals).

[9] = system: Balb/C mice; test: Ovalbumin induced pulmonary eosinophilia in mice; type: in vivo, mouse; details: OVA sensitized and challenged mice; i.n., i.p. or per os
Method: Male Balb/C mice with a body weight of 20-25 g are randomly divided into groups, and sensitized by an i.p. injection of ovalbumin (OVA, Sigma) on day zero and day fourteen. On the twentieth day, the mice are subjected to a challenge test by i.n. (intranasal) application of OVA (positive control or test groups) or PBS (negative control). The compounds are administered daily i.n., i.p. or per os in different doses starting 2 days before the challenge and up to the completion of the test. Compounds are administered as suspension either in PBS, methyl cellulose or carboxymethyl cellulose with addition od DMSO (up to 5% of the total volume). 48 hours after i.n. application of OVA, the animals are then anaesthetized to obtain bronchoalveolar lavage fluid (BALF), which is used to determine total protein concentration as well as concentrations of cytokines such as IL-1β and TNF-α, absolute number of cells, and percentage of eosinophils in BALF. Bronchoalveolar lavage (BAL) is performed by infusing 1 mL of PBS divided into 3 separate volumes (0.4, 0.3 and 0.3 ml) through trachea into the lungs. The fluid is immediately withdrawn and the cell suspension stored into previously prepared 1.5 mL Eppendorf tube. Bronchoalveolar lavage fluid (BALF) is then centrifuged at […] for 5 min (4° C.). Cells are resuspended in 700 μL of PBS. To prepare cytospins, 320 μL of suspension is centrifuged at 250 rpm for 10 min (Cytospin-3, Shandon Instruments). Cells are stained with Dif-Quik (Dade Behring) to determine percentage of eosinophils by counting of at least 100 cells. The remaining resuspended cells are used for total cell count in BALF analysis (Sysmex SF 3000). Finally, lungs are sampled and stored into 10% formalin for pathohistological evaluation of eosinophil and mononuclear infiltrate. Accumulation of eosinophils and mononuclear cells in peribronchial (PB) and perivascular (PV) lung tissue areas and in alveolar spaces is monitored.
as §5, with “eosinophils” for “neutrophils”, “eosinophils” for “granulocytes”, “(OVA” for “(LPS”
Fluticasone and beclomethasone are used as standard anti-inflammatory substances, and compared for ability to inhibit eosinophilia to the negative and positive controls.

| SMILES | inhibition of IL-10 production [1] | suppression of ear oedema [2] | inhibition of IL-1β production [3] | inhibition of IL-5 production [4] | inhibition of IL-4 production [5] | inhibition of IFNγ production [6] | inhibition of degranulation (standard) [7] | reduction of percentage of neutrophils and/or their total number in BALF and/or by histological scoring [8] | reduction of percentage of eosinophils and/or their total number in BALF and/or by histological scoring [9] |
| --- | --- | --- | --- | --- | --- | --- | --- | --- | --- |
| CCc1ccc2oc(=O)c(C(c3ccc(O)cc3)c3c(O)c4cc(CC)ccc4oc3=O)c(O)c2c1 [Example 244] | significantly inhibited | considered active | significantly inhibited | significantly inhibited | significantly inhibited | significantly inhibited |  |  |  |
| CN1CCC(=C2c3ccccc3CC(=O)c3sccc32)CC1 [Ketotifen, ketotifen] |  |  |  |  |  |  | significantly inhibits degranulation |  |  |
| Cc1cc2oc(=O)c(C(c3c(O)c4cc(C)c(C)cc4oc3=O)C(C)O)c(O)c2cc1C (stereo not shown) [Example 363] |  | considered active |  |  |  |  |  | statistically significant reduction | statistically significant reduction |
